From patent US20170000749A1, “Methods for Treating Cognitive Disorders Using Inhibitors of Histone Deacetylase” (Forum Pharmaceuticals, Inc., priority 2008, published 2017) come the findings set out here.

Where two headings read alike, the source gives them in different places.

The target in experiment [1] is one or more of HDAC-1, HDAC-2, HDAC-3, HDAC-4, HDAC-5, HDAC-6, HDAC-7, HDAC-8, HDAC-9, HDAC-10 and HDAC-11. Put plainly: Inhibition of Histone Deacetylase Enzymatic Activity (Boc-Lys(Ac)-AMC substrate, Fluor-de-Lys developer). In kind it is biochemical. Particulars: read-out: HDAC Inhibition (IC50 μM) HDAC Enzyme. Here is the method: The following protocol is used to assay the compounds of the disclosure.
The mixture is pre-incubated for 5 minutes at room temperature. The reaction is started by bringing the temperature to 37° C. and adding 16 μl substrate. Total reaction volume is 50 μl.
In the Tables 8, 9 and 10, A≦0.05 μM; 0.05 μM<B≦0.1 μM; 0.1 μM<C≦1 μM; and 1 μM<D≦10 μM.

The test system of experiment [2] is HDAC activity in primary mouse cortical cultures. Put plainly: Whole-Cell Histone Deacetylase (HDAC) Inhibition Assay in Primary Mouse Cortical Cultures. Format: cell-based. Particulars: whole-cell (WC), mouse cortical neurons, read-out: HDAC Inhibition (IC50 μM) WC mouse cortical neurons. A digest of the protocol:
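Primary neocortical neurons from E17 Balb/C mouse embryos were plated at 50000 cells/well and treated at DIV9 with ten-point DMSO dilutions for 16-18 h at 37° C, in triplicate. BOC-Lys(Ac)-AMC substrate was then added for 1 h. Fluor de Lys developer containing 1 uM TSA produced a fluorophore, which was read.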

As a reminder, the IC50 is the concentration at which inhibition is half-maximal. Consider `O=C(NO)c1cnc(N2C[C@@H]3C[C@H]2CN3c2cccc(SC(F)(F)F)c2)nc1` [N-hydroxy-2-((1S,4S)-5-(3-(trifluoromethylthio)phenyl)-2,5-diazabicyclo[2.2.1]heptan-2-yl)pyrimidine-5-carboxamide], for which the IC50 is < 0.05 µM in experiment [1] (Table 9) and 1 to 5 µM in experiment [2] (Table 9).
For `COc1ccc2c(c1)Oc1ccccc1N=C2c1ccc(C(=O)NO)cc1` [(Z)—N-hydroxy-4-(3-methoxydibenzo[b,f][1,4]oxazepin-11-yl)benzamide], the IC50 in experiment [1] (Table 8) was in the range of 0.1 to 1 µM; in experiment [2] (Table 8) it was 1 to 5 µM.
The like results for `O=C(NO)c1ccc(C2=Nc3ccc(Cl)cc3Oc3ccccc32)cc1` [(Z)-4-(7-chlorodibenzo[b,f][1,4]oxazepin-11-yl)-N-hydroxybenzamide] were, in that order, 0.1 to 1 µM and 5 to 15 µM.
As for `O=C(NO)c1cnc(N2CCCN(c3ncc(C(F)(F)F)cc3Cl)CC2)nc1`, the IC50 was < 0.05 µM in experiment [1] (Table 10) and 5 to 15 µM in experiment [2] (Table 10).
In the case of `O=C(NO)c1ccc(C2=Nc3ccccc3Oc3ncccc32)cc1` [(Z)-4-(benzo[b]pyrido[3,2-f][1,4]oxazepin-5-yl)-N-hydroxybenzamide], the IC50 in experiment [1] (Table 8) was 0.05 to 0.1 µM; in experiment [2] (Table 8), 1 to 5 µM.
Regarding `O=C(CCCCCCN1C(=O)c2ccccc2Oc2ccccc21)NO` [N-hydroxy-7-(11-oxodibenzo[b,f][1,4]oxazepin-10(11H)-yl)heptanamide], the figures for the IC50 in experiment [1] (Table 10) and in experiment [2] (Table 10) were < 0.05 µM and < 1 µM, respectively.
In the case of `O=C(NO)c1cnc(N2C[C@@H]3C[C@H]2CN3c2ccc(C(F)(F)F)cc2)nc1` [N-hydroxy-2-((1S,4S)-5-(4-(trifluoromethyl)phenyl)-2,5-diazabicyclo[2.2.1]heptan-2-yl)pyrimidine-5-carboxamide], the IC50 was < 0.05 µM in experiment [1] (Table 9) and 1 to 5 µM in experiment [2] (Table 9).
As to `O=C(NO)c1cnc(N2C[C@@H]3C[C@H]2CN3C(=O)OC2CCCC2)nc1` [(1S,4S)-cyclopentyl 5-(5-(hydroxycarbamoyl)pyrimidin-2-yl)-2,5-diazabicyclo[2.2.1]heptane-2-carboxylate], the IC50 in experiment [1] (Table 9) was < 0.05 µM; in experiment [2] (Table 9) it was < 1 µM.
As to `O=C(NO)c1cnc(N2C[C@@H]3C[C@H]2CN3c2cccc(S(F)(F)(F)(F)F)c2)nc1`, the IC50 in experiment [1] (Table 9) was < 0.05 µM; in experiment [2] (Table 9) it was 1 to 5 µM.
Consider `O=C(CCCCCCn1c(=O)c2ccccc2c2ccccc21)NO` [N-hydroxy-7-(6-oxophenanthridin-5(6H)-yl)heptanamide], for which the IC50 was < 0.05 µM in experiment [1] (Table 10) and < 1 µM in experiment [2] (Table 10).
`O=C(NO)c1cnc(N2C[C@@H]3C[C@H]2CN3c2ccc3c(c2)OCO3)nc1` [2-((1S,4S)-5-(benzo[d][1,3]dioxol-5-yl)-2,5-diazabicyclo[2.2.1]heptan-2-yl)-N-hydroxypyrimidine-5-carboxamide]: the IC50 in experiment [1] (Table 9) was < 0.05 µM; in experiment [2] (Table 9), < 1 µM.
Regarding `CCN1c2ccccc2N=C(c2ccc(C(=O)NO)cc2)c2cccnc21` [(Z)-4-(11-ethyl-11H-benzo[b]pyrido[2,3-e][1,4]diazepin-5-yl)-N-hydroxybenzamide], the IC50 in experiment [1] (Table 8) is < 0.05 µM; in experiment [2] (Table 8), < 1 µM.
For `C[S+]([O-])c1cccc2c1Oc1ccccc1N=C2c1ccc(C(=O)NO)cc1` (stereo not drawn) [(Z)—N-hydroxy-4-(4-(methylsulfinyl)dibenzo[b,f][1,4]oxazepin-11-yl)benzamide], in that order: 0.05 to 0.1 µM and 1 to 5 µM.
The like results for `O=C(NO)c1ccc(C2=Nc3ccccc3Oc3ccccc32)cc1F` [(Z)-4-(dibenzo[b,f][1,4]oxazepin-11-yl)-2-fluoro-N-hydroxybenzamide] were, in that order, 0.1 to 1 µM and 5 to 15 µM.
Consider `O=C(NO)c1cnc(N2C[C@@H]3C[C@H]2CN3c2nccc(C(F)(F)F)n2)nc1` [N-hydroxy-2-((1S,4S)-5-(4-(trifluoromethyl)pyrimidin-2-yl)-2,5-diazabicyclo[2.2.1]heptan-2-yl)pyrimidine-5-carboxamide], for which the IC50 in experiment [1] (Table 9) was < 0.05 µM; in experiment [2] (Table 9), < 1 µM.
